According to PMC9181915, “Synthesis and Anti-Neuroinflammatory Activity of 1,7-diphenyl-1,4-heptadien-3-ones in LPS-Stimulated BV2 Microglia Via Inhibiting NF-κB/MAPK Signaling Pathways” (Molecules, 2022):

Assays:
[1] = MTT cell viability assay in BV2 microglia cells; assay type: cell-based; settings: mouse, mean ± SD, n = 3
Experimental: (§1) The BV2 microglial cells were purchased from the China Center for Type Culture Collection, CCTCC (Wuhan, Hubei). BV2 microglia cells were incubated in DMEM media supplemented with 10% (v/v) FBS, 100 U/mL penicillin G and […] streptomycin at 37 °C with 5% CO2.
Cell viability assays were evaluated using a 3-(4,5-dimethylthiazol-2-yl)-2,5-diphenyltetrazolium bromide (MTT) assay. BV2 microglia cells were seeded in 96-well plates at a density of 1.6 × 10^5 cells/well in complete medium and incubated for 24 h. Then, the culture medium was sucked and discarded, and sterile PBS was added for washing, and then PBS was removed. Then the cells were treated with different concentrations of target compounds for 24 h. An amount equal to 100 μL of MTT was added to each well and the cells were further incubated for 2–4 h. An amount equal to 150 μL of DMSO was added into a 96-well plate and vibrated with micro-oscillator for 10 min. The optical density (A) was measured at […] on a microplate reader. The inhibitory rate of the various concentrations of agents in BV2 cells was calculated using the following formula:Cell viability (%) = [A492 (sample) − A492 (blank)]/[A492 (control) − A492 (blank)] × 100%

[2] = test system: LPS-induced NO release in BV2 cells; experiment: Inhibition of LPS-induced NO release in BV2 cells; assay type: cell-based; settings: Mus musculus, BV-2; for inhibition at 3 µM / inhibition at 1 µM: pretreated 1 h, then LPS 1 μg/mL for 24 h, BV2 cells
Experimental: as §1
Nitrite, a stable product of nitric oxide, was used to assess NO production. To study the effects of the compounds on NO production, BV2 microglia cells in the logarithmic phase were plated at 1 × 10^5 cells/well in a 24-well microplate and incubated in DMEM medium (10% FBS) overnight. The cells were pretreated with various concentrations of the test compounds for 1 h and further co-cultured with 1 μg/mL LPS and 5% CO2 for 24 h in a 37 °C incubator; then, the supernatant was taken and stored at −20 °C for NO detection. The target compound and LPS were configured with DMEM medium (2% FBS). The determination of NO was carried out according to the instructions. Unpretreated and unstimulated BV2 microglia cells were conducted as the blank control group. The absorbance value was determined at 540 nm, and the corresponding NO content was calculated by using the standard curve. The NO inhibitory rate of the various concentrations of agents in BV2 cells was calculated as per the following formula:Inhibition rate (%) = (LPS(NO concentration) − sample(NO concentration))/(LPS(NO concentration) − negative control(NO concentration)) × 100%.

Compound | viability at 24 h, 1 µM [1] | viability at 24 h, 3 µM [1] | viability at 24 h, 10 µM [1] | inhibition at 3 µM [2] | inhibition at 1 µM [2] | melting point | IC50 ([2]; BV2 cells, 0.3, 1.0, 3.0 μM, LPS 1 μg/mL 24 h, mean ± SD, n = 3, read-out: IC50 to inhibit LPS-induced NO release)
COc1cc(CC/C=C/C(=O)/C=C/c2ccccc2)cc(OC)c1OC [CU-27, (1E,4E)-1-phenyl-7-(3,4,5-trimethoxyphenyl)-1,4-heptadien-3-one] | 116.1 ± 0.44% | 101.31 ± 0.03% | 38.9 ± 1.19% | 7.02% |  |  | 
O=C(/C=C/CCc1ccccc1)/C=C/c1ccccc1O [CU-5, (1E,4E)-1-(2-hydroxyphenyl)-7-phenyl-1,4-heptadien-3-one] | 95.68 ± 0.11% | 77.39 ± 0.3% | 15.9 ± 0.61% |  | 0% | 134 to 136 °C | 
COc1ccc(/C=C/C(=O)/C=C/CCc2ccccc2)cc1O [CU-8, (1E,4E)-1-(3-hydroxy-4-methoxyphenyl)-7-phenyl-1,4-heptadien-3-one] | 101.18 ± 0.04% | 97.4 ± 0.07% | 18.2 ± 0.86% | 18.8% |  | 72 to 74 °C | 
COc1cc(/C=C/C(=O)/C=C/CCc2ccc(O)cc2)ccc1O [CU-17, (1E,4E)-1-(4-hydroxy-3-methoxyphenyl)-7-(4-hydroxyphenyl)-1,4-heptadien-3-one] | 99.36 ± 0.01% | 80.72 ± 0.2% | 32.4 ± 0.67% |  | 0% | 141 to 143 °C | 
O=C(/C=C/CCc1ccccc1)/C=C/c1cccc(O)c1 [CU-6, (1E,4E)-1-(3-hydroxyphenyl)-7-phenyl-1,4-heptadien-3-one] | 106.85 ± 0.1% | 100.07 ± 0.01% | 101.56 ± 0.03% | 22.1% |  | 94 to 96 °C | 
O=C(/C=C/CCc1ccccc1)/C=C/c1ccccc1 [CU-15, (1E,4E)-1,7-diphenyl-1,4-heptadien-3-one] | 104.99 ± 0.03% | 103.11 ± 0.03% | 84.19 ± 0.21% | 13.7% |  |  | 
COc1cc(/C=C/C(=O)/C=C/CCc2ccccc2)ccc1O [CU-9, (1E,4E)-1-(4-hydroxy-3-methoxyphenyl)-7-phenyl-1,4-heptadien-3-one] | 99.38 ± 0.01% | 94.65 ± 0.07% | 14.8 ± 0.75% | 7.52% |  | 114 to 116 °C | 
COc1ccc(/C=C/C(=O)/C=C/CCc2ccc(O)cc2)cc1O [CU-18, (1E,4E)-1-(3-hydroxy-4-methoxyphenyl)-7-(4-hydroxyphenyl)-1,4-heptadien-3-one] | 96.14 ± 0.03% | 46.6 ± 1.16% | 8.63 ± 0.373% |  | 2.15% | 152 to 154 °C | 
Cc1ccc(CC/C=C/C(=O)/C=C/c2ccc(O)cc2)cc1 [CU-11, (1E,4E)-1-(4-hydroxyphenyl)-7-(p-tolyl)-1,4-heptadien-3-one] | 99.17 ± 0.01% | 91.61 ± 0.09% | 11.2 ± 0.56% | 0% |  | 132 to 134 °C | 
O=C(/C=C/CCc1ccc(O)cc1)/C=C/c1ccccc1 [CU-25, (1E,4E)-7-(4-hydroxyphenyl)-1-phenyl-1,4-heptadien-3-one] | 128.6 ± 0.14% | 96.93 ± 0.01% | 20.3 ± 0.59% | 0% |  | 75 to 77 °C | 
O=C(/C=C/CCc1ccc(Cl)cc1)/C=C/c1ccccc1 [CU-28, (1E,4E)-7-(4-chlorophenyl)-1-phenyl-1,4-heptadien-3-one] | 95.71 ± 0.07% | 94.75 ± 0.05% | 81.65 ± 0.22% | 33.6% |  | 48 to 50 °C | 
COc1cc(CC/C=C/C(=O)/C=C/c2ccc(O)cc2)ccc1O [CU-12, (1E,4E)-7-(4-hydroxy-3-methoxyphenyl)-1-(4-hydroxyphenyl)-1,4-heptadien-3-one] | 92.03 ± 0.29% | 75.55 ± 0.17% | 12.7 ± 0.59% |  | 0% |  | 
O=C(/C=C/CCc1ccc(O)cc1)/C=C/c1ccc(O)cc1 [CU-1, (1E,4E)-1,7-bis(4-hydroxyphenyl)-1,4-heptadien-3-one] | 88.07 ± 0.19% | 49.84 ± 0.27% | 23.7 ± 0.38% |  | 0% |  | 
O=C(/C=C/CCc1ccccc1)/C=C/c1ccc(Cl)cc1 [CU-10, (1E,4E)-1-(4-chlorophenyl)-7-phenyl-1,4-heptadien-3-one] | 95.54 ± 0.03% | 95.27 ± 0.16% | 48.7 ± 2.93% | 0% |  | 70 to 72 °C | 
COc1cc(/C=C/C(=O)/C=C/CCc2ccc(O)c(OC)c2)ccc1O [CU-20, (1E,4E)-1,7-bis(4-hydroxy-3-methoxyphenyl)-1,4-heptadien-3-one] | 97.31 ± 0.03% | 51.8 ± 0.6% | 12.2 ± 0.21% |  | 16.9% | 103 to 105 °C | 
O=C(/C=C/CCc1ccccc1)/C=C/c1ccc(O)cc1 [CU-7, (1E,4E)-1-(4-hydroxyphenyl)-7-phenyl-1,4-heptadien-3-one] | 93.46 ± 0.35% | 52.8 ± 0.5% | 14.3 ± 0.7% |  | 0% | 121 to 123 °C | 
Cc1ccc(/C=C/C(=O)/C=C/CCc2ccccc2)cc1 [CU-16, (1E,4E)-7-phenyl-1-(p-tolyl)-1,4-heptadien-3-one] | 95 ± 0.08% | 88.57 ± 0.28% | 33.3 ± 1.2% | 15.4% |  | 46 to 48 °C | 
COc1cc(CC/C=C/C(=O)/C=C/c2ccccc2)ccc1O [CU-26, (1E,4E)-7-(4-hydroxy-3-methoxyphenyl)-1-phenyl-1,4-heptadien-3-one] | 107.17 ± 0.07% | 96.83 ± 0.02% | 12.8 ± 0.14% | 37.6% |  | 72 to 74 °C | 
Cc1ccc(CC/C=C/C(=O)/C=C/c2ccccc2)cc1 [CU-22, (1E,4E)-1-phenyl-7-(p-tolyl)-1,4-heptadien-3-one] | 95.14 ± 0.05% | 88.76 ± 0.06% | 46.6 ± 0.59% | 48.2% |  | 62 to 64 °C | > 3000 nM
COc1ccc(/C=C/C(=O)/C=C/CCc2ccccc2)cc1 [CU-3, (1E,4E)-7-phenyl-1-(4-methoxyphenyl)-1,4-heptadien-3-one] | 106.7 ± 0.14% | 101.55 ± 0.01% | 98.5 ± 0.01% | 35.2% |  | 48 to 50 °C | 
COc1ccc(/C=C/C(=O)/C=C/CCc2ccc(OC)c(OC)c2)cc1OC [CU-2, (1E,4E)-1,7-bis(3,4-dimethoxyphenyl)-1,4-heptadien-3-one] | 76.92 ± 0.19% | 49.2 ± 0.92% | 10.6 ± 1.13% |  | 0% | 97 to 99 °C | 
O=C(/C=C/CCc1cccc(O)c1)/C=C/c1ccccc1 [CU-24, (1E,4E)-7-(3-hydroxyphenyl)-1-phenyl-1,4-heptadien-3-one] | 103.49 ± 0.02% | 91.48 ± 0.07% | 23.17 ± 0.09% | 0% |  | 70 to 72 °C | 
COc1ccc(CC/C=C/C(=O)/C=C/c2ccccc2)cc1OC [CU-23, (1E,4E)-7-(3,4-dimethoxyphenyl)-1-phenyl-1,4-heptadien-3-one] | 106.5 ± 0.14% | 100.85 ± 0.01% | 12.3 ± 0.84% | 31.4% |  |  | 
